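Tested at 5 concentrations; 48 h exposure; 96-well plates; endpoints linearly interpolated, else capped at highest concentration. Definition used: TGI = concentration required for complete inhibition of growth.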
Columns and labels:
Test in all cases: NCI tumour cell line growth inhibition, 48 h
786-0 renal = test system: 786-0 renal
A498 renal = test system: A498 renal
A549 NSCLC = test system: A549 NSCLC
ACHN renal = test system: ACHN renal
BT-549 breast = test system: BT-549 breast
CAKI-1 renal = test system: CAKI-1 renal
CCRF-CEM leukemia = test system: CCRF-CEM leukemia
COLO 205 colon = test system: COLO 205 colon
DU-145 prostate = test system: DU-145 prostate
EKVX NSCLC = test system: EKVX NSCLC
HCT-116 colon = test system: HCT-116 colon
HCT-15 colon = test system: HCT-15 colon
HL-60(TB) leukemia = test system: HL-60(TB) leukemia
HOP-62 NSCLC = test system: HOP-62 NSCLC
HOP-92 NSCLC = test system: HOP-92 NSCLC
HS 578T breast = test system: HS 578T breast
HT29 colon = test system: HT29 colon
IGROV1 ovarian = test system: IGROV1 ovarian
K-562 leukemia = test system: K-562 leukemia
KM12 colon = test system: KM12 colon
LOX IMVI melanoma = test system: LOX IMVI melanoma
M14 melanoma = test system: M14 melanoma
MALME-3M melanoma = test system: MALME-3M melanoma
MCF7 breast = test system: MCF7 breast
MDA-MB-231 breast = test system: MDA-MB-231 breast
MDA-MB-435 = test system: MDA-MB-435
MDA-N = test system: MDA-N
MOLT-4 leukemia = test system: MOLT-4 leukemia
NCI-H226 lung = test system: NCI-H226 lung
NCI-H23 lung = test system: NCI-H23 lung
NCI-H460 lung = test system: NCI-H460 lung
NCI-H522 lung = test system: NCI-H522 lung
NCI/ADR-RES ovarian = test system: NCI/ADR-RES ovarian
OVCAR-3 ovarian = test system: OVCAR-3 ovarian
OVCAR-4 ovarian = test system: OVCAR-4 ovarian
OVCAR-5 ovarian = test system: OVCAR-5 ovarian
OVCAR-8 ovarian = test system: OVCAR-8 ovarian
PC-3 prostate = test system: PC-3 prostate
RPMI-8226 leukemia = test system: RPMI-8226 leukemia
RXF 393 renal = test system: RXF 393 renal
SF-268 CNS = test system: SF-268 CNS
SF-295 CNS = test system: SF-295 CNS
SF-539 CNS = test system: SF-539 CNS
SK-MEL-2 melanoma = test system: SK-MEL-2 melanoma
SK-MEL-28 melanoma = test system: SK-MEL-28 melanoma
SK-MEL-5 melanoma = test system: SK-MEL-5 melanoma
SK-OV-3 ovarian = test system: SK-OV-3 ovarian
SN12C renal = test system: SN12C renal
SNB-19 CNS = test system: SNB-19 CNS
SNB-75 CNS = test system: SNB-75 CNS
SR leukemia = test system: SR leukemia
SW-620 colon = test system: SW-620 colon
T-47D breast = test system: T-47D breast
TK-10 renal = test system: TK-10 renal
U251 CNS = test system: U251 CNS
UACC-257 melanoma = test system: UACC-257 melanoma
UACC-62 melanoma = test system: UACC-62 melanoma
UO-31 renal = test system: UO-31 renal
HCC-2998 colon = test system: HCC-2998 colon

In the case of `Oc1c(CN2CCOCC2)ccc(CN2CCOCC2)c1O`, the TGI (786-0 renal) is reported as > 100 µM, the TGI (A498 renal) is reported as > 100 µM and the TGI (A549 NSCLC) is reported as > 100 µM. The TGI (ACHN renal) was > 100 µM, the TGI (BT-549 breast) was > 100 µM and the TGI (CAKI-1 renal) was > 100 µM. For the same compound, the TGI (CCRF-CEM leukemia) was 12.9 µM, the TGI (COLO 205 colon) was > 100 µM and the TGI (DU-145 prostate) was 83 µM. The TGI (EKVX NSCLC) was > 100 µM, the TGI (HCT-116 colon) was > 100 µM and the TGI (HCT-15 colon) was > 100 µM. The TGI (HL-60(TB) leukemia) was 27.2 µM, the TGI (HOP-62 NSCLC) was > 100 µM and the TGI (HOP-92 NSCLC) was > 100 µM. The TGI (HS 578T breast) was > 100 µM, the TGI (HT29 colon) was > 100 µM and the TGI (IGROV1 ovarian) was > 100 µM. For the same compound, the TGI (K-562 leukemia) was > 100 µM, the TGI (KM12 colon) was > 100 µM and the TGI (LOX IMVI melanoma) was > 100 µM. For the same compound, the TGI (M14 melanoma) was 84 µM, the TGI (MALME-3M melanoma) was > 100 µM and the TGI (MCF7 breast) was > 100 µM. The TGI (MDA-MB-231 breast) was > 100 µM, the TGI (MDA-MB-435) was > 100 µM and the TGI (MDA-N) was > 100 µM. The TGI (MOLT-4 leukemia) was > 100 µM, the TGI (NCI-H226 lung) was 88.9 µM and the TGI (NCI-H23 lung) was > 100 µM. For the same compound, the TGI (NCI-H460 lung) was 82.8 µM, the TGI (NCI-H522 lung) was > 100 µM and the TGI (NCI/ADR-RES ovarian) was > 100 µM. The TGI (OVCAR-3 ovarian) was 66.3 µM, the TGI (OVCAR-4 ovarian) was > 100 µM and the TGI (OVCAR-5 ovarian) was > 100 µM. For the same compound, the TGI (OVCAR-8 ovarian) was > 100 µM, the TGI (PC-3 prostate) was > 100 µM and the TGI (RPMI-8226 leukemia) was > 100 µM. The TGI (RXF 393 renal) was > 100 µM, the TGI (SF-268 CNS) was > 100 µM and the TGI (SF-295 CNS) was 96.3 µM. For the same compound, the TGI (SF-539 CNS) was > 100 µM, the TGI (SK-MEL-2 melanoma) was 94.6 µM and the TGI (SK-MEL-28 melanoma) was > 100 µM. For the same compound, the TGI (SK-MEL-5 melanoma) was 67 µM, the TGI (SK-OV-3 ovarian) was > 100 µM and the TGI (SN12C renal) was 88.4 µM. For the same compound, the TGI (SNB-19 CNS) was > 100 µM, the TGI (SNB-75 CNS) was 75.3 µM and the TGI (SR leukemia) was > 100 µM. The TGI (SW-620 colon) was > 100 µM, the TGI (T-47D breast) was > 100 µM and the TGI (TK-10 renal) was > 100 µM. The TGI (U251 CNS) was > 100 µM, the TGI (UACC-257 melanoma) was 88.7 µM and the TGI (UACC-62 melanoma) was 61.2 µM. For the same compound, the TGI (UO-31 renal) was 72.2 µM.

`O=C1C=CC(=O)c2c(O)c(N3CCN(c4ccccn4)CC3)c(Cl)c(O)c21` was tested, and the TGI (786-0 renal) was 1.71 µM, the TGI (A498 renal) was 9.68 µM and the TGI (A549 NSCLC) was 11.8 µM. The TGI (ACHN renal) was 6.51 µM, the TGI (BT-549 breast) was 3.43 µM and the TGI (CAKI-1 renal) was 4.55 µM. The TGI (CCRF-CEM leukemia) was 1.84 µM, the TGI (COLO 205 colon) was 2.8 µM and the TGI (DU-145 prostate) was 10.5 µM. For the same compound, the TGI (EKVX NSCLC) was 19.6 µM, the TGI (HCC-2998 colon) was 5.99 µM and the TGI (HCT-116 colon) was 3.25 µM. For the same compound, the TGI (HCT-15 colon) was 2.48 µM, the TGI (HL-60(TB) leukemia) was 0.692 µM and the TGI (HOP-62 NSCLC) was 9.58 µM. For the same compound, the TGI (HOP-92 NSCLC) was 2.72 µM, the TGI (HS 578T breast) was 4.97 µM and the TGI (HT29 colon) was 2.05 µM. It also gave a TGI (IGROV1 ovarian) of 3.22 µM, a TGI (KM12 colon) of 7.02 µM and a TGI (LOX IMVI melanoma) of 0.299 µM. For the same compound, the TGI (M14 melanoma) was 2.85 µM, the TGI (MALME-3M melanoma) was 3.05 µM and the TGI (MCF7 breast) was 3.01 µM. It also gave a TGI (MDA-MB-231 breast) of 3.55 µM, a TGI (MDA-MB-435) of 9.29 µM and a TGI (MDA-N) of 2.81 µM. It also gave a TGI (MOLT-4 leukemia) of 2.01 µM, a TGI (NCI-H226 lung) of 10.2 µM and a TGI (NCI-H23 lung) of 2.45 µM. The TGI (NCI-H460 lung) was 8.53 µM, the TGI (NCI-H522 lung) was 3.5 µM and the TGI (NCI/ADR-RES ovarian) was 8.98 µM. The TGI (OVCAR-3 ovarian) was 4 µM, the TGI (OVCAR-4 ovarian) was 3.02 µM and the TGI (OVCAR-5 ovarian) was 17.9 µM. It also gave a TGI (OVCAR-8 ovarian) of 6.25 µM, a TGI (PC-3 prostate) of 4.48 µM and a TGI (RXF 393 renal) of 3.16 µM. For the same compound, the TGI (SF-268 CNS) was 7.44 µM, the TGI (SF-295 CNS) was 10.7 µM and the TGI (SF-539 CNS) was 3.2 µM. The TGI (SK-MEL-28 melanoma) was 3.37 µM, the TGI (SK-MEL-5 melanoma) was 2.95 µM and the TGI (SK-OV-3 ovarian) was 21.2 µM. For the same compound, the TGI (SN12C renal) was 3.36 µM, the TGI (SNB-19 CNS) was 18 µM and the TGI (SNB-75 CNS) was 3.43 µM. The TGI (SR leukemia) was 4.96 µM, the TGI (SW-620 colon) was 1.94 µM and the TGI (T-47D breast) was 3.07 µM. For the same compound, the TGI (TK-10 renal) was 4.94 µM, the TGI (UACC-257 melanoma) was 3.87 µM and the TGI (UACC-62 melanoma) was 2.01 µM. For the same compound, the TGI (UO-31 renal) was 3.68 µM.

From PubChem BioAssay (NCI)
